Experimental findings from patent US8853129B2 (Dow AgroSciences, LLC., priority 2010, dated 2014) are described below.

Holding throughout (test): Herbicidal activity of mixtures under field conditions, residual weed control in grape crop
Holding throughout (assay type): in vivo

In test [1] the test system is black nightshade (Solanum nigrum; SOLNI). The conditions noted are these: France, glyphosate tank mixed. As to the method: (§1) Trials were conducted under field conditions in France. Trial sites were located in commercially grown European grape crop (Vitis vinifera). The grapes were grown using normal cultural practices for fertilization, seeding, and maintenance to ensure good growth of the crop and the weeds. The trials were conducted using normal research methodology. Trial plots were between 2 to 4.5 meters (m) wide by 5.5 to 10 m long. […] The trial sites had naturally occurring populations of weeds. The weed spectrum included, but was not limited to, black nightshade (Solanum nigrum; SOLNI), common lambsquarter (Chenopodium album; CHEAL), common groundsel (Senecio vulgaris; SENVU), round-leaved […] spuria; KICSP) and common purslane (Portulaca olerace; POROL). […] Glyphosate was tank mixed with all treatments to provide complete foliar control of all weeds so that the residual weed control after application could be evaluated. The application volumes were between 150-325 liters per hectare (L/ha) of water. All application were made using precision gas hand sprayers using a 2 or 3 m boom using flat fan (80° or 110°) nozzles to broadcast the treatments on the soil. The treated plots and control plots were rated blind at various intervals after application. […] Data were collected for all trials and analyzed using various statistical methods. Colby's equation was used to determine the herbicidal effects expected from the mixtures (Colby, S. R. Calculation of the synergistic and antagonistic response of herbicide combinations. Weeds 1967, 15, 20-22). […] A=observed efficacy of active ingredient A at the same concentration as used in the mixture; B=observed efficacy of active ingredient B at the same concentration as used in the mixture.

For test [2], the system named is common groundsel (Senecio vulgaris; SENVU). The conditions noted are these: penoxsulam 7 g ai/ha; 103 days after application, Fronton, France; glyphosate tank mixed. The method, then:
as §1

Test [3] concerns common lambsquarter (Chenopodium album; CHEAL). The conditions noted are these: penoxsulam 7 g ai/ha; 109 DAA, Fronton, France; glyphosate tank mixed. The method, then: as §1
Test [4] deals with common purslane (Portulaca oleracea; POROL). Conditions: penoxsulam 7 g ai/ha; 103 days after application, Fronton, France; glyphosate tank mixed. As to the method:
as §1

Test [5] relates to round-leaved fluellen (Kickxia spuria; KICSP). Conditions: penoxsulam 7 g ai/ha; 103 days after application, Fronton, France; glyphosate tank mixed. The method, then: as §1

In the case of `COc1cnc(OC)n2nc(NS(=O)(=O)c3c(OCC(F)F)cccc3C(F)(F)F)nc12` [Penoxsulam], the “Percent Control SOLNI (1) Ob” value in test [1] (penoxsulam 5.6 g ai/ha, 56 DAA, Bourdic) is listed as 78%. Moreover, the “Percent Control SOLNI (2) Ob” value in test [1] (penoxsulam 7 g ai/ha, 68 DAA, Eshallat) is given as 17%. Besides, in test [2], the “Percent Control SENVU Ob” value amounted to 27%. In addition, the “Percent Control CHEAL Ob” value in test [3] was determined as 13%. Besides, in test [4], the “Percent Control POROL Ob” value was 0%. In addition, in test [5], the “Percent Control KICSP Ob” value came to 0%.
